Test results reported in patent US6989252B2, “Hydrogen production using hydrogenase-containing oxygenic photosynthetic organisms” (Midwest Research Institute, priority 1999, dated 2006).

System: H2-producing C. reinhardtii cultures
Experiment: H2 gas collection from H2-producing sulfur-deprived cultures after inhibitor addition
Assay type: cell-based, Chlamydomonas reinhardtii
Conditions: inhibitor added to H2-producing sulfur-depleted cultures
Source text: Culture bottles (Schott or Roux type) were fitted with an #25 Ace thread and smaller side-ports for liquid sampling. A threaded glass stopper with capillaries for gas sampling was fitted with a Viton O-ring and used to seal the reactor. Threaded side-arm and gas sampling ports were sealed with rubber laminated Teflon septa. Teflon tubing (Aminco, HPLC), attached to one of the gas ports, was used to conduct gas evolved by the algae in the culture bottles to an upside-down graduated cylinder filled with H2O. The gas collection tubing was detached from the culture bottle during liquid and gas sampling to avoid disturbance of gas volume readings in the graduated cylinder.
We, thus, conclude that most of the reductants for H2 production are generated by residual water oxidation activity in sulfur-depleted C. reinhardtii cultures, but that an endogenous substrate may also contribute electrons for the process.

Structure (SMILES) | rate of H2 gas collection relative to its initial value (% of initial value) | inhibition of H2 gas collection
CN(C)C(=O)Nc1ccc(Cl)c(Cl)c1 [DCMU] | about 20% | 
CC1=C(Br)C(=O)C(C(C)C)=C(Br)C1=O [DBMIB] |  | Total inhibition
